ChEMBL document CHEMBL5465560, “Selectivity Literature for EUbOPEN Chemogenomic Library” (2024)
Residue numbers refer to the chain shown, from its start.

What was measured:
[1] = molecular target: T1, Discoidin domain-containing receptor 2 (Homo sapiens) (UniProt Q16832); assay: (§1) Selectivity interaction (LanthaScreen Eu Kinase Binding Assay) EUB0001632a DDR2; details: at 10 µM
T1 sequence (whole entry): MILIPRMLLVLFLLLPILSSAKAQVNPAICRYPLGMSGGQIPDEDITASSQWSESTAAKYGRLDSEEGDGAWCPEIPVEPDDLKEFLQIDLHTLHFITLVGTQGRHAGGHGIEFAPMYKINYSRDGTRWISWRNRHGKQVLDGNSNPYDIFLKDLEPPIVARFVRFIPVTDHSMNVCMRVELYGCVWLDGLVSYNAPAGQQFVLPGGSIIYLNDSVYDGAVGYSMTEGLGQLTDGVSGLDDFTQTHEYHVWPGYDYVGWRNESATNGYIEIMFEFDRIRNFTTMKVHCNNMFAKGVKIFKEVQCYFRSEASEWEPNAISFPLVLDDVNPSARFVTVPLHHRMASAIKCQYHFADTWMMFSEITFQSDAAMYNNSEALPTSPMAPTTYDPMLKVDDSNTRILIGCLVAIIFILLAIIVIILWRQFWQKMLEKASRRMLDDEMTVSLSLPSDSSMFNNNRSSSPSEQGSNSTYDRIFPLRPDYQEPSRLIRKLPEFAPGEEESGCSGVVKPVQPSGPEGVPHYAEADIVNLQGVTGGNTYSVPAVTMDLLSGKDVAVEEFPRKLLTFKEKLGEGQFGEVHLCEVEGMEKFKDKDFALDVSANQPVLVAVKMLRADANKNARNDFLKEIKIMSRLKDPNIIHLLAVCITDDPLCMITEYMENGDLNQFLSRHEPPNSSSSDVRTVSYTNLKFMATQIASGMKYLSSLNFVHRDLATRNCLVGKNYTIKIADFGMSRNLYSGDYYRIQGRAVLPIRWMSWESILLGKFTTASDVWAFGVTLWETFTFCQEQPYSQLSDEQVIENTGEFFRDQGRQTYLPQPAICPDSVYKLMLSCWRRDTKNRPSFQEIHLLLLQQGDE

[2] = tested on: T2, Discoidin domain-containing receptor 2 (Homo sapiens), Q16832 [T654M]; assay: as §1; details: at 10 µM
T2 sequence (whole entry): T1 sequence (whole entry) with T654M

[3] = molecular target: Serine/threonine-protein kinase 25 (Homo sapiens) (UniProt O00506); assay: Selectivity interaction (Kinase panel (Z-LYTE Assay)) EUB0001632a STK25; details: at 10 µM
[4] = molecular target: Histone-lysine N-methyltransferase SETDB1 (Homo sapiens) (UniProt Q15047); assay: Selectivity interaction (Methyltransferase screen (radiometric assays, panel of 8 PRMTs, 21 protein lysine methyltransferases, 3 DNA methyltransferases, and one RNA methyltransferase)) EUB0000272b SETDB1
[5] = molecular target: T3, cAMP-dependent protein kinase catalytic subunit PRKX (Homo sapiens) (UniProt P51817); assay: Selectivity interaction (KinomeScan (DiscoverX)) EUB0000695a PRKX; details: at 100 nM
T3 sequence (whole entry): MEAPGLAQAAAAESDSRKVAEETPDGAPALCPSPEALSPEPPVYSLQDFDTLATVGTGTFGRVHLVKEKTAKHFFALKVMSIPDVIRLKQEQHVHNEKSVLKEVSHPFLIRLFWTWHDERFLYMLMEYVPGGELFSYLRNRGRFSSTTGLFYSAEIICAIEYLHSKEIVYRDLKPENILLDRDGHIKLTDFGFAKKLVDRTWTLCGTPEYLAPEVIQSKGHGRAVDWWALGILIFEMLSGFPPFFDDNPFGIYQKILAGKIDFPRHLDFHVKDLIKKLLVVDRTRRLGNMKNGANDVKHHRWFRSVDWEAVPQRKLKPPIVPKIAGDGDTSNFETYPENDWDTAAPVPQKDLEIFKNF

[6] = molecular target: Serine/threonine-protein kinase MRCK alpha (Homo sapiens) (UniProt Q5VT25); assay: Selectivity interaction (KinomeScan (DiscoverX)) EUB0000655a CDC42BPA; details: at 10 µM
[7] = molecular target: T4, Rhodopsin kinase GRK1 (Homo sapiens) (UniProt Q15835); assay: Selectivity interaction (KinomeScan (DiscoverX)) EUB0000618a GRK1; details: at 10 µM
T4 sequence (whole entry): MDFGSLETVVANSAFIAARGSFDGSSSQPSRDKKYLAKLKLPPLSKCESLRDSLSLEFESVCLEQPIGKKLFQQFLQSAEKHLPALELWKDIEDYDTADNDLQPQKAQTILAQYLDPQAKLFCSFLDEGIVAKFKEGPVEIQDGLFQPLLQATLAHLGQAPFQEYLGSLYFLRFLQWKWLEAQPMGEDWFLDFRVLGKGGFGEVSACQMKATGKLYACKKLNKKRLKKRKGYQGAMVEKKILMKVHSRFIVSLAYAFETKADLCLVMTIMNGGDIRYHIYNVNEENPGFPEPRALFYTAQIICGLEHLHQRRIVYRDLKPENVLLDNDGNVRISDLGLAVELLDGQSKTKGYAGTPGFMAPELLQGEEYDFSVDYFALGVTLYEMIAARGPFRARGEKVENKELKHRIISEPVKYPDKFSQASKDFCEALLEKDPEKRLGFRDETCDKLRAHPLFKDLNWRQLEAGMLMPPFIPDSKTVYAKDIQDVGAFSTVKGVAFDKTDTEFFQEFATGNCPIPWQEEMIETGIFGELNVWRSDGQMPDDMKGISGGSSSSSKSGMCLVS

Serine/threonine-protein kinase MRCK alpha (Homo sapiens), sequence (Q5VT25 whole entry): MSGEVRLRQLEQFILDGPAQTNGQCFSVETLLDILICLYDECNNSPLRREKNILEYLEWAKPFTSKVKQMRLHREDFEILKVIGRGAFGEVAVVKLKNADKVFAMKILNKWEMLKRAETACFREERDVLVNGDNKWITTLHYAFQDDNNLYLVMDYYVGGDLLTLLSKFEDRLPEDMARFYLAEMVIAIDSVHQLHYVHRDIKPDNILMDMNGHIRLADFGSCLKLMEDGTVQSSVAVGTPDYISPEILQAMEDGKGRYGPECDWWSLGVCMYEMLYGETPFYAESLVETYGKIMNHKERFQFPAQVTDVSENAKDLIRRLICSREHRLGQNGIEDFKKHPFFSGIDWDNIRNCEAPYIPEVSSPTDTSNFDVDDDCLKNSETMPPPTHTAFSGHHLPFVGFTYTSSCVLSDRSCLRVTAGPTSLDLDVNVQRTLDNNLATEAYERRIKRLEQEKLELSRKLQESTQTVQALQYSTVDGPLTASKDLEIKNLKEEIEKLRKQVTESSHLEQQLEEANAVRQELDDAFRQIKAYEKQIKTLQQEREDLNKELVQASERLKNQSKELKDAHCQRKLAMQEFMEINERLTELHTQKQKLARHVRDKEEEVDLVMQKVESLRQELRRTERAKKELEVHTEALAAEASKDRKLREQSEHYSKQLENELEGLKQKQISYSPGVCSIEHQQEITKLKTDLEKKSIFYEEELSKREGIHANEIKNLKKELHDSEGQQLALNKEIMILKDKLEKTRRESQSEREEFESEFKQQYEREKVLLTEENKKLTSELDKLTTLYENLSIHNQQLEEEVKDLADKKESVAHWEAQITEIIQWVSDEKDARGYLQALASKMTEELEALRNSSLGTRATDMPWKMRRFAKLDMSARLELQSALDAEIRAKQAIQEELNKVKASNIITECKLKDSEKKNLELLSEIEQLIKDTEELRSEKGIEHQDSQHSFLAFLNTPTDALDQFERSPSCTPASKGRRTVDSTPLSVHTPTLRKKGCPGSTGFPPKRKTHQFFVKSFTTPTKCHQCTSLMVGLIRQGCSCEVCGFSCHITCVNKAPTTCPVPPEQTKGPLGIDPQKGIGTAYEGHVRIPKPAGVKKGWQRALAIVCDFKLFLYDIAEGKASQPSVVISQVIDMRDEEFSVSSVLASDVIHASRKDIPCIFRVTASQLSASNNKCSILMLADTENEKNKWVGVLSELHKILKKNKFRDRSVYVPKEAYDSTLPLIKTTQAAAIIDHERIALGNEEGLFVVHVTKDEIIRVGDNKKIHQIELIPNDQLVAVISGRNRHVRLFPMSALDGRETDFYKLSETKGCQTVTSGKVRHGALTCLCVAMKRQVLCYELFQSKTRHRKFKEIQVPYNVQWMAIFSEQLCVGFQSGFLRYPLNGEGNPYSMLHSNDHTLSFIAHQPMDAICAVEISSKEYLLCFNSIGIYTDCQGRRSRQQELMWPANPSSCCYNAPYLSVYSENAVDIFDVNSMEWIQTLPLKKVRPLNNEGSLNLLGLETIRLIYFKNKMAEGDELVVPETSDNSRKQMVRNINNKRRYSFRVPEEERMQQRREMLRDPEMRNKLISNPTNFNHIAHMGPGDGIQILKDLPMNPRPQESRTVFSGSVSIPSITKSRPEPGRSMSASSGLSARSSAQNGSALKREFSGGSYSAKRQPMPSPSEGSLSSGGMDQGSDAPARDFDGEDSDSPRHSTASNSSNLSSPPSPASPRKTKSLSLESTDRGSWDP
Serine/threonine-protein kinase 25 (Homo sapiens), sequence (O00506 whole entry, looked up): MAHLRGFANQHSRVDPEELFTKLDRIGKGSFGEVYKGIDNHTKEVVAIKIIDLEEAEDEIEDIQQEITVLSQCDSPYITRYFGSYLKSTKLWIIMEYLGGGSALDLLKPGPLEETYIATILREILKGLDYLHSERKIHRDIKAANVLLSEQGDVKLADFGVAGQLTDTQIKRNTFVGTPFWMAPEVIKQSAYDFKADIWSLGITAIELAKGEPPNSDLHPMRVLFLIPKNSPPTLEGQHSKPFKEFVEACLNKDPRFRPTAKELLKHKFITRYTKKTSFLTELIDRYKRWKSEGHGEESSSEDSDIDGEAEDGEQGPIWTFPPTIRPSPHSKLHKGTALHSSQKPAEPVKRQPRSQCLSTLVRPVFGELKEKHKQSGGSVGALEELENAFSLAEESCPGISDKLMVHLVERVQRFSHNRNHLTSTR

## Cn1cc(-n2cnc3c(NCc4nc5cc(Cl)c(Cl)cc5[nH]4)nc(N4CCOCC4)nc32)cn1
[1]
  % of inhibition: -2.81%
[2]
  % of inhibition: -29.9%
[3]
  % of control: 17.9%

## Cc1cc(C)cc([C@H]2c3cc(C)ccc3NC(=O)CN2C(=O)c2ccc(Br)s2)c1
[4]; at 1 µM
  % of activity: 103%
[4]; at 10 µM
  % of activity: 104%

## Cc1cc(F)c(C(=O)Nc2cccc(-c3nncn3C(C)C)n2)cc1-n1cnc(C2CC2)c1
[5]
  % of control: 100%

## CN(C)CCOc1ccc(-c2nc(-c3ccncc3)c(-c3ccc4c(c3)CC/C4=N\O)[nH]2)cc1
[6]
  % of control: 78%

## O[C@H]1CC[C@H](Nc2ncc3nc(Nc4c(F)cc(F)cc4F)n([C@H]4CCOC4)c3n2)CC1
[7]
  % of control: 78%
